Laboratory results reported in patent publication US20050163737A1, “Deodorant cosmetic composition comprising a combination of zinc pidolate and an antiperspirant aluminum salt” (priority 2003, published 2005).

What was measured:
[1] = Deodorant efficacy test: odor intensity of incubated underarm sweat, expert panel; design: species or system human; conditions: 24 hours at 37° C, vs control sweat
Protocol: Protocol of the Deodorant Efficacy Test
Collections of underarm sweat were taken in a sauna from 6 volunteers; the samples of individual sweat, were stored in ice for a few hours, and were at this point virtually odorless. They were then mixed together and divided into 1 ml aliquots. The active agents were added to these aliquots, which were then incubated in an oven at 37° C. After incubation for 24 hours, a panel of experts evaluated the intensity of the odor in comparison with a control sample: 1 ml of sweat incubated without agent.
The results were expressed as a percentage of variation of the intensity of the odor in comparison with the control sweat sample (mean of the percentages of variation at T24h).

[2] = cited from earlier work

Molecule | % of Reduction in the Intensity of the Odor ([1]; 0.3 mg AM/ml of sweat) [%] | % of Reduction in the Intensity of the Odor ([1]; 0.1 mg AM/ml of sweat) [%] | % of Reduction in the Intensity of the Odor ([1]; 0.2 mg AM/ml of sweat (total)) [%] | % of Reduction in the Intensity of the Odor ([1]; 0.4 mg AM/ml of sweat (total)) [%] | Solubility in water [2]
zinc ricinoleate [(C)] | −4 |  |  |  | 
zinc pidolate [(A)] |  | −47 | −47 |  | 
Oc1cc(Cl)ccc1Oc1ccc(Cl)cc1Cl [(B), 2,4,4′-trichloro-2′-hydroxydiphenyl ether] |  |  |  | −49 | insoluble
aluminum chlorohydrate [ACH] |  | −37 | −47 |  | 
